The values that follow come from ChEMBL document CHEMBL4431343, “Synthesis and activity of novel homodimers of Morita-Baylis-Hillman adducts against Leishmania donovani: A twin drug approach” (Bioorg Med Chem Lett, 2016).

As usually defined, the IC50 is the concentration needed to halve the response being measured. Broadly, the HC50 is the concentration giving 50% haemolysis.

The test system of data set [1] is Leishmania donovani. Kind of data set: Antileishmanial activity against promastigote forms of Leishmania donovani MHOM/ET/1967/HU3 assessed as reduction in cell viability after 72 hrs by MTT assay. The data set is classed as functional, organism-based. The conditions noted are these: MHOM/ET/1967/HU3, 72 h.
Data set [2] is described as follows: Selectivity index, ratio of HC50 for human red blood cells to IC50 for promastigote forms of Leishmania donovani MHOM/ET/1967/HU3. As to conditions: read-out: Selectivity Index. The data set is classed as toxicity.
A short description of data set [3]: Hemolytic activity in human red blood cells. The class given is cell-based, Erythrocyte. As to conditions: red blood cells (erythrocytes).
For data set [4], the system named is Leishmania donovani. Put plainly: Potency index, ratio of Amphotericin B IC50 to compound IC50 for promastigote forms of Leishmania donovani MHOM/ET/1967/HU3. The class given is functional.

The structures appear in SMILES notation.

For `C=C(C(=O)OCCOC(=O)C(=C)C(O)c1ccc([N+](=O)[O-])cc1)C(O)c1ccc([N+](=O)[O-])cc1` (centres undefined), the IC50 in data set [1] is 44.6 µM.
As for `C=C(C(=O)OCCOC(=O)C(=C)C(O)c1ccccc1[N+](=O)[O-])C(O)c1ccccc1[N+](=O)[O-]` (centres undefined), the IC50 in data set [1] turned out to be 24.8 µM.
The same measure, in the same setting: the value for `C=C(C(=O)OC)C(O)c1ccc([N+](=O)[O-])cc1` (centres undefined) was 165 µM; that for `C=C(C(=O)OC)C(O)c1cccc([N+](=O)[O-])c1` (centres undefined) was 161 µM; that for `C=C(C(=O)OC)C(O)c1ccccc1` (centres undefined) was 953 µM.
As for `C=C(C(=O)OCCOC(=O)C(=C)C(O)c1cccc([N+](=O)[O-])c1)C(O)c1cccc([N+](=O)[O-])c1` (centres undefined), the IC50 in data set [1] is 43 µM.
Same read-out and setting: next, `C=C(C(=O)OC)C(O)c1ccccc1[N+](=O)[O-]` (centres undefined): 690 µM; `C=C(C(=O)OC)C(O)c1ccc(Br)cc1` (centres undefined): 197 µM.
`C=C(C(=O)OCCOC(=O)C(=C)C(O)c1ccc2ccccc2c1)C(O)c1ccc2ccccc2c1` (centres undefined): in data set [1], the IC50 came out at 39 µM.
In the case of `C=C(C(=O)OC)C(O)c1ccc(Cl)cc1` (centres undefined), in data set [1], the IC50 was 202 µM.
The same measure, in the same setting: the value for `C=C(C(=O)OC)C(O)c1ccc2ccccc2c1` (centres undefined) was 185 µM.
As to `C=C(C(=O)OCCOC(=O)C(=C)C(O)c1ccc(Cl)cc1)C(O)c1ccc(Cl)cc1` (centres undefined), the IC50 in data set [1] turned out to be 10.5 µM. For the same compound, in data set [2], the selectivity ratio is above 19.1. In data set [3], this compound came in with an HC50 above 200 µM.
As to `C=C(C(=O)OC)C(O)c1ccc(F)cc1` (centres undefined), the IC50 in data set [1] is 610 µM.
As to `C=C(C(=O)OCCOC(=O)C(=C)C(O)c1ccc(Br)cc1)C(O)c1ccc(Br)cc1` (centres undefined), in data set [1], the IC50 is 0.5 µM. Further, in data set [2], the selectivity ratio was above 400. Further, the “Ratio IC50” value in data set [4] turned out to be 1.24. The compound further displayed an HC50 in data set [3] above 200 µM.
For `C[C@@H]1[C@H](O)[C@@H](C)/C=C/C=C/C=C/C=C/C=C/C=C/C=C/[C@H](O[C@@H]2O[C@H](C)[C@@H](O)[C@H](N)[C@@H]2O)C[C@@H]2O[C@](O)(C[C@@H](O)C[C@@H](O)[C@H](O)CC[C@@H](O)C[C@@H](O)CC(=O)O[C@H]1C)C[C@H](O)[C@H]2C(=O)O` [AMPHOTERICIN B], the IC50 in data set [1] was found to be 0.62 µM. For the same compound, the selectivity ratio in data set [2] amounted to 18.7. This compound gave an HC50 in data set [3] of 11.6 µM.
As for `C=C(C(=O)OCCOC(=O)C(=C)C(O)c1ccccc1)C(O)c1ccccc1` (centres undefined), in data set [1], the IC50 is 126 µM.
Turning to `C=C(C(=O)OCCOC(=O)C(=C)C(O)c1ccc(F)cc1)C(O)c1ccc(F)cc1` (centres undefined), the IC50 in data set [1] stood at 42.4 µM.
